In US11884933B2, “Supported in vitro developed tissue culture and culturing methods” (IMBA—INSTITUT FÜR MOLEKULARE BIOTECHNOLOGIE GMBH, priority 2016, dated 2024):
“Also recorded” adds a separate entry of the source.

Assays:
[1] = tested on: microfilament patterned organoids; test: CHIR pulse after neuroepithelial budding in microfilament organoids; type: cell-based, human
Text: At day 3, half media was changed with EB media without bFGF and Y-27632. On day 5, EBs were moved with an angled cut P200 tip to 24-well low-attachment plates (Sigma, cat. #CLS3473) with neural induction media (NI) as previously described in WO 2014/090993 A1 (incorporated herein by reference) (FIG. 1a, step 3). Media was changed every other day. On day 11, or when polarized neural ectoderm was visible on the surface, organoids were transferred to droplet of Matrigel as previously described in WO 2014/090993 A1 but kept in NI media (FIG. 1a, transition from step 3 to 4). At day 13 (2 days after Matrigel embedding), media was changed to an improved differentiation media-A (IDMA): 1:1 of DMEM/F12 and Neurobasal (Invitrogen, cat. #21103049), 0.5% N2 supplement (Invitrogen, cat. #17502048), 2% B27-vitamin A (Invitrogen, cat. #12587010), 0.25% insulin solution (Sigma, cat. #I9278-5ML), 50 μM 2-mercaptoethanol, 1% Glutamax, 0.5% MEM-NEAA, and 1% Penicillin-Streptomycin (Sigma, cat. *P0781). Additionally, CHIR 99021 (Tocris, cat. #4423) at 3 μM was added from day 13 to 16. Media was changed every other day and organoids were moved to a spinning bioreactor or orbital shaker as described previously in WO 2014/090993 A1, on day 18 (FIG. 1a, step 5). After moving to the shaker, media was changed every 3-4 days. Shaking speed was calculated based on the throw of the shaker. […]

H1 spheroids = test: Three day CHIR pulse in spheroids, germ layer staining; type: cell-based, human; details: 3-day CHIR pulse alone, day 40 spheroids
Experimental: Organoids were fixed in 4% paraformaldehyde for 20 min at room temperature and washed with PBS three times for 10 min each at room temperature before allowing to sink in 30% sucrose at 4° C. […] Statistical analysis of quantifications performed from imaging data was performed using Student's t-test for significance.

H9 enCORs = test: Cortical plate / basement membrane formation in enCORs with dissolved ECM components or GM6001; type: cell-based, human
Experimental: At day 20, media was changed to an improved differentiation+A (IDM+A): 1:1 of DMEM/F12 and Neurobasal, 0.5% N2 supplement, 2% B27+vitamin A, 0.25% insulin solution, 50 μM 2-mercaptoethanol, 1% Glutamax, 0.5% MEM-NEAA, 1% Penicillin-Streptomycin, 0.4 mM Vitamin C, and 1.49 g HEPES per 500 ml to control pH levels. Alternatively, media can be pH controlled with further bicarbonate buffering with the addition of 1 mg/ml sodium bicarbonate. At day 40, media was changed to IDM+A with 1 ml dissolved Matrigel per 50 ml media by slowly thawing the Matrigel on ice and addition to cold media to dissolve (FIG. 1a, step 6).
For treatment with matrix metalloprotease inhibitor GM6001 (Selleck Chemicals S7157), a final concentration of 3 μM was added beginning on day 30.

Compound: Cc1c[nH]c(-c2cnc(NCCNc3ccc(C#N)cn3)nc2-c2ccc(Cl)cc2Cl)n1 [CHIR, CHIR99021]
- neuroepithelial bud morphology ([1]; CHIR 3 μM, day 13 to 16, after Matrigel embedding): larger, more continuous buds of neuroepithelium; also recorded: dramatic lateral expansion of neuroepithelial tissues and the generation of larger lumens with surrounding continuous neuroepithelium
- dorsal brain region identity staining (Emx1, Tbr1, Tbr2) ([1]; microfilament patterned organoids treated with CHIR): all large lobes of brain tissue within microfilament patterned organoids treated with CHIR to be dorsal cortex; also recorded: large Emx1+ regions; also recorded: virtually all large regions stained positive for dorsal cortical markers Tbr1 and Tbr2
- germ layer induction and organoid morphology (H1 spheroids): did not influence germ layer induction or overall organoid morphology

Compound: CNC(=O)[C@H](Cc1c[nH]c2ccccc12)NC(=O)[C@@H](CC(=O)NO)CC(C)C [GM6001]
- CP formation (H9 enCORs; GM6001 3 μM continuous from day 30, 60-day enCORs): no signs of CP formation; also recorded: did not result in CP formation by 60 days

Compound: CCO [ethanol]
- ethanol concentration in the media (150 mM dose, within a day): approximately 60 mM
- course of ethanol concentration in the media (all doses tested): progressive decrease in concentration over time
- equivalent blood alcohol content (equivalent of approximately 60 mM): 0.27 % by volume

Compound: laminin
- CP formation (H9 enCORs; dissolved laminin 35 μg/ml from day 40, 60-day enCORs): no evidence of CP formation; also recorded: did not recapitulate the extent of CP formation seen with Matrigel
